Columns and labels:
MDA-MB-231 = conditions: 72 h
Procedure: (§1)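 Drug sensitivity and resistance testing (DSRT) of breast cancer cell lines in 384-well plates, 5 concentrations in 10-fold dilutions over a compound-specific 10,000-fold range. After 72 h, cytotoxicity was read by CellTox Green fluorescence and viability by CellTiter-Glo luminescence (multiplexed), normalised to DMSO and benzethonium chloride controls. EC50 is the inflection point of the fitted dose-response curve (bottom asymptote free, so it can be relative for partial curves) and is censored at the highest tested concentration. Rows with DSS 0 (no meaningful response) were excluded.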

MDA-MB-436 = test: drug sensitivity score (DSS), CellTox Green (DSS (AUC-based score)); higher = stronger drug effect (viability inhibition or cytotoxicity); extreme values may be limits of the assay; conditions: incubation time: 72 h
How it was run: (§2)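 Compound was dispensed into 384-well plates at 5 concentrations in 10-fold steps spanning a 10,000-fold range chosen for each compound, and 20 µl of breast cancer cell suspension was added before 72 h of incubation. CellTox Green fluorescence was read at 485/520 nm, followed by CellTiter-Glo luminescence after 10 min at room temperature. Values on each plate were normalised to 0.1 % DMSO and a positive kill control. The drug sensitivity score came from the area under the fitted dose-response curve.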

MDA-MB-468 = test: as above; conditions: incubation time: 72 h
How it was run: as §2

CAL-51 = conditions: 72 h
Procedure: as §1

Compound: COC(=O)C[C@](O)(CCCC(C)(C)O)C(=O)O[C@@H]1C(OC)=C[C@]23CCCN2CCc2cc4c(cc2[C@H]13)OCO4 [Omacetaxine]
- EC50, CellTox Green (MDA-MB-231): 620 nM
- drug sensitivity score (MDA-MB-436): 1.54
- drug sensitivity score (MDA-MB-468): 3.61

Compound: COC1=C2C[C@@H](C)C[C@H](OC)[C@H](O)[C@@H](C)/C=C(\C)[C@H](OC(N)=O)[C@@H](OC)/C=C\C=C(/C)C(=O)NC(=CC1=O)C2=O [Geldanamycin]
- EC50, CellTox Green (MDA-MB-231): 4120 nM
- EC50, CellTox Green (CAL-51): 8440 nM
- drug sensitivity score (MDA-MB-436): 0
- drug sensitivity score (MDA-MB-468): 25

Compound: Cn1c(=O)c(F)c(Nc2ccc(I)cc2F)c2c(=O)n(C[C@@H](O)CO)cnc21 [TAK-733]
- EC50, CellTox Green (MDA-MB-231): 54.6 nM
- drug sensitivity score (MDA-MB-436): 0
- drug sensitivity score (MDA-MB-468): 0

Compound: C[C@@]1(C(=O)Nc2ccc(F)nc2)CCCN1c1nc(Nc2cc(C3CC3)n[nH]2)c2cccn2n1
- EC50, CellTox Green (MDA-MB-231): 1980 nM
- EC50, CellTox Green (CAL-51): 824 nM
- drug sensitivity score (MDA-MB-436): 0
- drug sensitivity score (MDA-MB-468): 18.2

Compound: COc1cccc2c1C(=O)c1c(O)c3c(c(O)c1C2=O)C[C@@](O)(C(C)=O)C[C@@H]3O[C@H]1C[C@H](N)[C@H](O)[C@H](C)O1 [Daunorubicin]
- EC50, CellTox Green (CAL-51): 183 nM
- drug sensitivity score (MDA-MB-436): 1.42
- drug sensitivity score (MDA-MB-468): 4.94

Compound: COc1ccc(C2=N[C@@H](c3ccc(Cl)cc3)[C@@H](c3ccc(Cl)cc3)N2C(=O)N2CCNC(=O)C2)c(OC(C)C)c1 [Nutlin-3]
- EC50, CellTox Green (CAL-51): 252 nM
- drug sensitivity score (MDA-MB-436): 0
- drug sensitivity score (MDA-MB-468): 0

Compound: O=c1[nH]c(=O)n([C@H]2C[C@H](O)[C@@H](CO)O2)cc1F [Floxuridine]
- EC50, CellTox Green (CAL-51): 734 nM
- drug sensitivity score (MDA-MB-436): 0
- drug sensitivity score (MDA-MB-468): 0

Compound: CC(=O)O[C@H]1C(=O)[C@@]2(C)[C@H]([C@H](OC(=O)c3ccccc3)[C@]3(O)C[C@H](OC(=O)[C@H](O)[C@@H](NC(=O)c4ccccc4)c4ccccc4)C(C)=C1C3(C)C)[C@]1(OC(C)=O)CO[C@@H]1C[C@@H]2O [Paclitaxel]
- EC50, CellTox Green (MDA-MB-231): 8.57 nM
- EC50, CellTox Green (CAL-51): 2.93 nM
- drug sensitivity score (MDA-MB-436): 7.09
- drug sensitivity score (MDA-MB-468): 26.9

Compound: CCS(=O)(=O)c1cccc(-c2cc(C(=O)NC3CCN(C)CC3)c(C)c3[nH]c4ncc(C)cc4c23)c1 [TAK-901]
- EC50, CellTox Green (MDA-MB-231): 184 nM
- drug sensitivity score (MDA-MB-436): 0
- drug sensitivity score (MDA-MB-468): 0

Compound: COc1c(C)cnc(Cn2cnc3c(Cl)nc(N)nc32)c1C [BIIB021]
- EC50, CellTox Green (MDA-MB-231): 928 nM
- EC50, CellTox Green (CAL-51): 758 nM
- drug sensitivity score (MDA-MB-436): 0
- drug sensitivity score (MDA-MB-468): 0

Compound: COc1ncc(-c2ccc3nccc(-c4ccnnc4)c3c2)cc1NS(=O)(=O)c1ccc(F)cc1F
- EC50, CellTox Green (MDA-MB-231): 157 nM
- EC50, CellTox Green (CAL-51): 91.7 nM
- drug sensitivity score (MDA-MB-436): 0
- drug sensitivity score (MDA-MB-468): 9.19

Compound: Cc1cc(C(C)Nc2ccccc2)c2nc(N3CCOCC3)cc(=O)n2c1 (configuration not stated) [TGX-221]
- EC50, CellTox Green (MDA-MB-231): > 10000 nM
- drug sensitivity score (MDA-MB-436): 0
- drug sensitivity score (MDA-MB-468): 0

Compound: CC(C)C[C@H](NC(=O)[C@H](Cc1ccccc1)NC(=O)c1cnccn1)B(O)O [Bortezomib]
- EC50, CellTox Green (MDA-MB-231): 13.9 nM
- EC50, CellTox Green (CAL-51): 27.5 nM
- drug sensitivity score (MDA-MB-436): 16.6
- drug sensitivity score (MDA-MB-468): 33.3

Compound: C#Cc1cccc(Nc2ncnc3cc(OC)c(OCCCCCCC(=O)NO)cc23)c1 [CUDC-101]
- EC50, CellTox Green (MDA-MB-231): 403 nM
- EC50, CellTox Green (CAL-51): 2460 nM
- drug sensitivity score (MDA-MB-436): 5.42
- drug sensitivity score (MDA-MB-468): 13

Compound: CN(c1ccccc1CNc1nc(Nc2ccc3c(c2)CC(=O)N3)ncc1C(F)(F)F)S(C)(=O)=O
- EC50, CellTox Green (MDA-MB-231): 1820 nM
- EC50, CellTox Green (CAL-51): 201 nM
- drug sensitivity score (MDA-MB-436): 0
- drug sensitivity score (MDA-MB-468): 0

Compound: C[C@@H]1C=C2C(=O)O[C@@H]3CC[C@H](C1)[C@]23O [Galiellalactone]
- drug sensitivity score (MDA-MB-436): 0
- drug sensitivity score (MDA-MB-468): 0

Compound: CN1CCN(c2ccc3nc(-c4c(N)c5c(F)cccc5[nH]c4=O)[nH]c3c2)CC1 [Dovitinib]
- drug sensitivity score (MDA-MB-436): 0
- drug sensitivity score (MDA-MB-468): 0

Compound: COC1=CC(c2cc3ccccc3[nH]2)=N/C1=C\c1[nH]c(C)cc1C [Obatoclax]
- EC50, CellTox Green (MDA-MB-231): 760 nM
- EC50, CellTox Green (CAL-51): 2640 nM
- drug sensitivity score (MDA-MB-436): 0
- drug sensitivity score (MDA-MB-468): 0

Compound: O=C(c1ccc(OCCN2CCCCC2)cc1)c1c(-c2ccc(O)cc2)sc2cc(O)ccc12 [Raloxifene]
- drug sensitivity score (MDA-MB-436): 0
- drug sensitivity score (MDA-MB-468): 0

Compound: FC(F)c1nc2ccccc2n1-c1nc(N2CCOCC2)nc(N2CCOCC2)n1 [ZSTK474]
- drug sensitivity score (MDA-MB-436): 0
- drug sensitivity score (MDA-MB-468): 0

Compound: Cn1cnc2c(F)c(Nc3ccc(Br)cc3F)c(C(=O)NOCCO)cc21 [MEK-162]
- drug sensitivity score (MDA-MB-436): 0
- drug sensitivity score (MDA-MB-468): 0

Source: the supplement of paper PMC4862054
